Reference: US11801242B2, “Compositions and methods for adjuvant cancer therapeutics” (DUKE UNIVERSITY, priority 2018, dated 2023)

Assays:
[1] = target: T1, chimeric REV1 CTD protein (Mus musculus, UniProt Q920Q2); assay: Isothermal titration calorimetry; assay type: binding; settings: 25° C.
T1 construct: the mouse REV1 CTD (F1150-T1249); His10-GB1 (TEV site) (N, cleaved yes); made in house; host or cells: E. coli BL21 Star (DE3)
T1 sequence (Q920Q2 1150-1249): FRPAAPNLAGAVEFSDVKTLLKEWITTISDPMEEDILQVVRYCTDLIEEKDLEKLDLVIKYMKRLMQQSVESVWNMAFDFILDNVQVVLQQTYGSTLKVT
Experimental: Isothermal titration calorimetry measurements were carried out using a MicroCal VP-ITC instrument at 25° C., with the chimeric REV1 CTD protein (300 μM) in the syringe and compound (15 μM) in the cell. Compounds were initially dissolved in 50% MPD. Protein and compound samples were diluted in a buffer containing 50 mM HEPES pH 7.5, 50 mM KCl, 2 mM TCEP, 2% DMSO and 0.1% MPD. Microcal Origin 7 software was used to analyze the data.

HT1080 cells = assay: HPRT mutagenesis assay; assay type: cell-based, human; settings: RE01 1.5 μM, cisplatin 0.5 μM
Experimental: (§1) For the hypoxanthine-guanine phosphoribosyl transferase (HPRT) mutagenesis assay, cells were first grown in HAT (complete media with 100 μM Hypoxanthine, 0.4 μM Aminopterin and 16 μM Thymidine) media (ThermoFisher) for 14 days to weed out any spontaneous HPRT mutants. After HAT selection, cells were exposed to cisplatin at the 0.5 μM concentration for 24 hours. Then, in fresh media, RE01 at a concentration of 1.5 μM was added to cells. After 24 hours of drug treatment, cells were trypsinized and washed with PBS. While 200-600 cells were plated in complete media in triplicates in 6-well plates to determine clonal efficiency, the rest of the cells were plated in complete media to allow the expression of the phenotype for 8 days. Then, 500,000 cells per treatment were plated in sextuplicate in 10 cm dishes in 6-TG media to allow the proliferation of mutated HPRT^− cells. Colonies were fixed (50% methanol and 10% glacial acetic acid), stained (0.02% Coomassie brilliant blue R-250 stain in methanol: acetic acid: water in a ratio of 46.5:7:46.5 (v/v/v)), and counted after 14-20 days. The HPRT mutation frequency was calculated as the ratio of the number of HPRT^− colonies in 6-TG media to the number of surviving colonies plated in complete media to determine clonal efficiency.

Rev1^+/+ MEF cells [2] = assay: Clonogenic survival assay; assay type: cell-based, mouse; settings: RE01 1.5 μM + cisplatin 0.5 μM vs cisplatin alone
Experimental: 300 cells were plated in triplicate in 6-well plates for 24 hours. Cisplatin (cis-diammineplatinum(II) dichloride, Sigma-Aldrich) was added to relevant wells for 24 hours. All plates were incubated at 37° C. for 24 hours. Media were changed the next day and in fresh media RE01 (at 1.5 μM concentration) was added to untreated or cisplatin-treated cells for another 24 hours. Media were changed at the end of these combination treatments, and cells were allowed to recover for 7 days. To stain the resulting colonies, media were aspirated and the fixative (50% methanol and 10% glacial acetic acid) was added for 10 minutes, followed by the addition of 0.02% Coomassie brilliant blue R-250 stain (ThermoFisher) in methanol: acetic acid: water in a ratio of 46.5:7:46.5 (v/v/v). Colonies that stained blue and contained at least 40 cells were counted. Relative cell survival or colony formation was calculated by dividing colony counts from treated samples by the DMSO or untreated controls.

Rev1^+/+ MEF cells [3] = assay: HPRT mutagenesis assay; assay type: cell-based, mouse; settings: RE01 1.5 μM, cisplatin 0.5 μM
Experimental: as §1

A375 cells = assay: qRT-PCR of p21 mRNA; assay type: cell-based, human; settings: combination RE01 1.5 μM and cisplatin 1 μM
Experimental: Total RNA was isolated by using the RNeasy Mini kit (Qiagen) from cells treated with RE01 (1.5 μM), cisplatin (1 μM) and a combination of both RE01 (1.5 μM) and cisplatin (1 μM). 5 ng of RNA from each sample was mixed with 10 μl of Applied Biosystems™ PowerUp™ SYBR™ Green Master Mix (ThermoFisher), 1 μl of MultiScribe™ Reverse Transcriptase (ThermoFisher), 0.1 μl of RNaseOUT™ Recombinant Ribonuclease Inhibitor and 5.9 μl of RNase-free water, and run in a one-step qRT-PCR reaction. Each reaction was run in triplicate. Primers used were: p21 F 5′-[…]-3′ (SEQ ID NO: 9), p21 R 5-CGGCGTTTGGAGTGG TAGAAA-3′ (SEQ ID NO: 10); GAPDH F 5′-[…]-3′ (SEQ ID NO: 11), GAPDH R 5′-[…]-3′ (SEQ ID NO: 12).

SMILES: CC(C)CC(=O)c1c(Nc2ccc(Cl)cc2Cl)[nH]c2c(Cl)ccc([N+](=O)[O-])c2c1=O [RE01, 8-chloro-2-((2,4-dichlorophenyl)amino)-3-(3-methylbutanoyl)-5-nitroquinolin-4(1H)-one]
- protein-to-ligand stoichiometry [1]: 2.04±0.03
- Kd ([1]; read-out: dissociation constant (Kd)): 420 ± 110 nM
- frequency of spontaneous and cisplatin-induced HPRT mutations (HT1080 cells): decreased
- colony forming ability (Rev1^+/+ MEF cells [2]): significantly reduced
- spontaneous or cisplatin-induced HPRT mutation rates (Rev1^+/+ MEF cells [3]): significantly reduced
- levels of the p21 biomarker (A375 cells): elevated levels
